In this assay the target is wild-type human cardiac sodium channel, hNav1.5 (Homo sapiens, UniProt Q14524). In words: Late INa screening assay (QPatch whole cell patch clamp, tefluthrin-enhanced late sodium current). The assay is classed as cell-based. The following applies: HEK293 hNav1.5, late INa activated with 10 μM Tefluthrin. On the procedure:
The late sodium current (Late INa) and peak sodium current (Peak INa) assays are performed on an automated electrophysiology platform, QPatch 16X (Sophion Bioscience, Copenhagen, Denmark), which uses the whole cell patch clamp technique to measure currents through the cell membrane of up to 16 cells at a time. The assay uses an HEK293 (human embryonic kidney) cell line heterologously expressing the wild-type human cardiac sodium channel, hNav1.5, purchased from Millipore (Billerica, Mass.). No beta subunits were coexpressed with the Na channel alpha subunit. Cells are maintained with standard tissue culture procedures and stable channel expression is maintained with 400 μg/mL Geneticin in the culture medium. Cells isolated for use on QPatch are incubated for 5 minutes in Detachin 1X (Genlantis, San Diego, USA) at 37° C. to ensure that 80-90% of the cells are single and not part of a cell cluster. Experiments are carried out at 23-25° C.
For both the Late INa and Peak INa assays, series resistance compensation is set to 100% and series resistance and whole-cell compensation are performed automatically. Currents are digitized at 25 kHz and low-pass filtered at 12 kHz and 10 kHz for the late and peak INa assays, respectively. Currents through open sodium channels are automatically recorded and stored in the Sophion Bioscience Oracle database (Sophion Bioscience, Copenhagen, Denmark). Analysis is performed using QPatch Assay and database software and data are compiled in Excel.
Compound stocks are routinely made by the Gilead Sample Bank in plastic vials to 10 mM in dimethyl sulfoxide (DMSO). In some cases, when compounds are not soluble in DMSO, they are made in 100% ethanol. Stocks are sonicated as necessary. The extracellular solution for screening Late INa is composed of: 140 mM NaCl, 4 mM KCl, 1.8 mM CaCl2, 0.75 mM MgCl2 and 5 mM HEPES with pH adjusted to 7.4 using NaOH. The intracellular solution used to perfuse the inside of the cells for both the Late INa and Peak INa assays contains: 120 mM CsF, 20 mM CsCl, 5 mM EGTA, 5 mM HEPES and pH adjusted to 7.4 with CsOH. Compounds are diluted in extracellular solution to 1 μM in glass vials and then transferred to glass well plates before robotic addition to the cells. A 0 mM Na extracellular solution (0 Na-ECF) is used at the end of each experiment for the Late INa and Peak INa assays to measure baseline current contains: 140 mM N-methyl-D-glucamine; 4 mM KCl; 1.8 mM CaCl2; 0.75 mM MgCl2; 5 mM HEPES and pH was adjusted to 7.4 with HCl.
For the hNav1.5 Late INa assay, sodium channels are activated every 10 seconds (0.1 Hz) by depolarizing the cell membrane to −20 mV for 250 milliseconds (ms) from a holding potential of −120 mV. In response to a −20 mV voltage step, typical hNav1.5 sodium currents activate rapidly to a peak negative current and then inactivate nearly completely within 3-4 ms.
Compounds were tested to determine their activity in blocking the late sodium current. Late INa was generated by adding 10 μM Tefluthrin (pyrethroid) to the extracellular solution while recording Na currents. To confirm the block of late INa observed using the automated screening method, a second late INa enhancer (ATX-II) and the manual patch clamp method were used. ATX-II and tefluthrin occupy distinct, non-overlapping binding sites and modify Na^+ channel function differently to increase late INa. Compounds tested have been found generally to inhibit the enhanced late INa caused by either late INa enhancer. For the purposes of the screening, late INa is defined as the mean current between 225 ms and 250 ms after stepping to −20 mV to activate Na channels. After establishing the whole cell recording configuration, late INa activator is added to each well 4 times over a 16-17 minute period so that the late component of the Na current reaches a stable value. Compounds were then added (typically at 1 μM), in the presence of the late INa activator, with 3 additions over the course of 7 or 8 minutes. […]
For orientation: Patch clamp records ionic current or voltage across a cell membrane.

The record followed here is patent publication US9695192B2, “Fused heterocyclic compounds as ion channel modulators” (GILEAD SCIENCES, INC., priority 2011, dated 2017).

One may read the inhibition as how much of the control response was suppressed.

wild-type human cardiac sodium channel, hNav1.5, sequence (Q14524 whole entry): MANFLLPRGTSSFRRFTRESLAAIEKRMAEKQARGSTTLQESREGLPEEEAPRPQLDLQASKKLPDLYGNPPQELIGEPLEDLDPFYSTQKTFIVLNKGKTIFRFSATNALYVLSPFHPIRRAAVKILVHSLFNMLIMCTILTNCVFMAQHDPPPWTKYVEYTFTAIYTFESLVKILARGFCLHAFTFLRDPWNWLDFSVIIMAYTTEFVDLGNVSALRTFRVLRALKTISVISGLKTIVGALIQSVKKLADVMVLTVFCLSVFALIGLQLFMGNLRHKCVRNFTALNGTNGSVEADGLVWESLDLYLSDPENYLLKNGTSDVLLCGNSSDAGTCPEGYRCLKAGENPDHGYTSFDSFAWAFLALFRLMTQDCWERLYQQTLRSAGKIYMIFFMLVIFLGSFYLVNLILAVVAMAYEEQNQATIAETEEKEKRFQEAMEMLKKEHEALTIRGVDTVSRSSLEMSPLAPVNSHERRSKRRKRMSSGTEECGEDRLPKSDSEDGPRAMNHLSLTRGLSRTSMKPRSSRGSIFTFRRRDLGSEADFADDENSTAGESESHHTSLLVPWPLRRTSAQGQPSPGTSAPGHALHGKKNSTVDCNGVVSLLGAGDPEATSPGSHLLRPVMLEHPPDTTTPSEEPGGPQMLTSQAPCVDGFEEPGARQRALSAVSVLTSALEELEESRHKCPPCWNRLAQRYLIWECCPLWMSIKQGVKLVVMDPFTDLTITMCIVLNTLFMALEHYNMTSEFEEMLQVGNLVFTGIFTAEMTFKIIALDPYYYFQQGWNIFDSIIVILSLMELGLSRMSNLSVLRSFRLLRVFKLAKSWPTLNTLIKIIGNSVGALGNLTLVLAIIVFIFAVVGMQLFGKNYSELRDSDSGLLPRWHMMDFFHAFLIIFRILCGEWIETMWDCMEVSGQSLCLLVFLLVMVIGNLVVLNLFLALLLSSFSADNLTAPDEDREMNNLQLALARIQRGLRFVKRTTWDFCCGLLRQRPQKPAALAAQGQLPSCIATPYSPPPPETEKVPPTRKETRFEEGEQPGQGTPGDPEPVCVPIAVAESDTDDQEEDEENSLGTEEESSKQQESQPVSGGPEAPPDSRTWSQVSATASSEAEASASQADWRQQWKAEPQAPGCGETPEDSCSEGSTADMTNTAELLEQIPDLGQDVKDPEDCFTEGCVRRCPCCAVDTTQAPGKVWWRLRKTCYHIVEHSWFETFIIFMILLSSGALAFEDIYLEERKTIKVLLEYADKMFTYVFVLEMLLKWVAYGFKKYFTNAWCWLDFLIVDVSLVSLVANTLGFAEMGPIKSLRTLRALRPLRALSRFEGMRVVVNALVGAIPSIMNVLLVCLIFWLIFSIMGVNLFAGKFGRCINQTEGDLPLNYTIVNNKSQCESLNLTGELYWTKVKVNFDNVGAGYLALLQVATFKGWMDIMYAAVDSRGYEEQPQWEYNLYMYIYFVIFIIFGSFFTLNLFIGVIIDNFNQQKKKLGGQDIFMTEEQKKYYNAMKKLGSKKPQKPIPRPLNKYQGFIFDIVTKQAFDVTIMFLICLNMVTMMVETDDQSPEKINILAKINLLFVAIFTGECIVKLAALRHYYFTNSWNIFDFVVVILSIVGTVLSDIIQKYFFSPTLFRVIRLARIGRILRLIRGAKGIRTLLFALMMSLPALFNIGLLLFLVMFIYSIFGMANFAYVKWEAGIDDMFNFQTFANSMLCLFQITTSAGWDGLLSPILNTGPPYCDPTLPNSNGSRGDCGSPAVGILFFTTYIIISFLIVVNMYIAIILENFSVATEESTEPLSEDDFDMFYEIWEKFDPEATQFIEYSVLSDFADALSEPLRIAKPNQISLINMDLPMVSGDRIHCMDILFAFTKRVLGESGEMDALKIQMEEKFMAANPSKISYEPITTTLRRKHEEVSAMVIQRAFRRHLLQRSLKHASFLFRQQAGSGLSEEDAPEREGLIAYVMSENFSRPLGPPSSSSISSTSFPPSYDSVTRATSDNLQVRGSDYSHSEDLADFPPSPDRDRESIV

Turning to `FC(F)(F)c1ccc(-c2ccc3c(c2)C(NCc2cccc(C(F)(F)F)n2)=NCCO3)cc1` [II-25, 7-(4-(trifluoromethyl)phenyl)-N-((6-(trifluoromethyl)pyridin-2-yl)methyl)-2,3-dihydrobenzo[f][1,4]oxazepin-5-amine], the inhibition at 1 µM is 20%.

For `Cc1cnc2n1CCOc1ccc(-c3ccc(OC(F)(F)F)cc3)cc1-2` [Compound I-17, 3-methyl-10-(4-(trifluoromethoxy)phenyl)-5,6-dihydrobenzo[f]imidazo[1,2-d][1,4]oxazepine], the inhibition at 1 µM was 14%.

As for `N#Cc1cnc2n1CCOc1ccc(-c3ccc(C(F)(F)F)cc3)cc1-2` [Compound I-16, 10-(4-(trifluoromethyl)phenyl)-5,6-dihydrobenzo[f]imidazo[1,2-d][1,4]oxazepine-3-carbonitrile], the inhibition at 1 µM was 1%.

In the case of `O=C1CCCN1C1=NCCOc2ccc(-c3ccc(C(F)(F)F)cc3)cc21` [II-30, 1-(7-(4-(trifluoromethyl)phenyl)-2,3-dihydrobenzo[f][1,4]oxazepin-5-yl)pyrrolidin-2-one], the inhibition at 1 µM was 10%.

Consider `O=C(O)c1cn2c(n1)-c1cc(-c3ccc(C(F)(F)F)cc3)ccc1OCC2` [Compound I-22, 10-(4-(trifluoromethyl)phenyl)-5,6-dihydrobenzo[f]imidazo[1,2-d][1,4]oxazepine-2-carboxylic acid], for which the inhibition at 1 µM stood at 5%.

In the case of `Cn1ccnc1CNC1=NCCOc2ccc(-c3ccc(C(F)(F)F)cc3)cc21` [II-17, N-((1-methyl-1H-imidazol-2-yl)methyl)-7-(4-(trifluoromethyl)phenyl)-2,3-dihydrobenzo[f][1,4]oxazepin-5-amine], the inhibition at 1 µM is 10%.

For `FC(F)(F)c1ccc(-c2ccc3c(c2)C(Nc2ccccn2)=NCCO3)cc1` [II-19, N-(pyridin-2-yl)-7-(4-(trifluoromethyl)phenyl)-2,3-dihydrobenzo[f][1,4]oxazepin-5-amine], the inhibition at 1 µM worked out at 43%.

For `O=C(N[C@@H]1CCN(C2=NCCOc3ccc(-c4ccc(C(F)(F)F)cc4)cc32)C1)c1ncccn1` [II-46, (R)—N-(1-(7-(4-(trifluoromethyl)phenyl)-2,3-dihydrobenzo[f][1,4]oxazepin-5-yl)pyrrolidin-3-yl)pyrimidine-2-carboxamide], the inhibition at 1 µM was 4%.

For `O=C(N[C@H]1CCN(C2=NCCOc3ccc(-c4ccc(C(F)(F)F)cc4)cc32)C1)c1ncccn1` [II-45, (S)—N-(1-(7-(4-(trifluoromethyl)phenyl)-2,3-dihydrobenzo[f][1,4]oxazepin-5-yl)pyrrolidin-3-yl)pyrimidine-2-carboxamide], the inhibition at 1 µM came out at 6%.

Turning to `FC(F)(F)c1ccc(-c2ccc3c(c2)C(N2CCOCC2)=NCCO3)cc1` [II-1, 5-morpholino-7-(4-(trifluoromethyl)phenyl)-2,3-dihydrobenzo[f][1,4]oxazepine], the inhibition at 1 µM came out at 21%.

On to `CN1CCN(C2=NCCOc3ccc(-c4ccc(C(F)(F)F)cc4)cc32)CC1` [II-52, 5-(4-methylpiperazin-1-yl)-7-(4-(trifluoromethyl)phenyl)-2,3-dihydrobenzo[f][1,4]oxazepine], for which the inhibition at 1 µM was determined as 10%.

On to `CN(C)[C@@H]1CCN(C2=NCCOc3ccc(-c4ccc(C(F)(F)F)cc4)cc32)C1` [II-51, (R)—N,N-dimethyl-1-(7-(4-(trifluoromethyl)phenyl)-2,3-dihydrobenzo[f][1,4]oxazepin-5-yl)pyrrolidin-3-amine], for which the inhibition at 1 µM came out at 21%.

For the molecule `FC(F)(F)c1ccc(-c2ccc3c(c2)C2=NCCCN2CCO3)cc1` [Compound I-8, 11-(4-(trifluoromethyl)phenyl)-3,4,6,7-tetrahydro-2H-benzo[f]pyrimido[1,2-d][1,4]oxazepine], the inhibition at 1 µM was 9%.

On to `FC(F)(F)c1ccc(-c2ccc3c(c2)C(NCc2ncccn2)=NCCO3)cc1` [II-7, N-(pyrimidin-2-ylmethyl)-7-(4-(trifluoromethyl)phenyl)-2,3-dihydrobenzo[f][1,4]oxazepin-5-amine], for which the inhibition at 1 µM worked out at 14%.

For the molecule `CCN(CC)[C@H]1CCN(C2=NCCOc3ccc(-c4ccc(C(F)(F)F)cc4)cc32)C1` [II-48, (S)—N,N-diethyl-1-(7-(4-(trifluoromethyl)phenyl)-2,3-dihydrobenzo[f][1,4]oxazepin-5-yl)pyrrolidin-3-amine], the inhibition at 1 µM turned out to be 24%.

For the molecule `O=C(c1ncccn1)N1CCC(NC2=NCCOc3ccc(-c4ccc(C(F)(F)F)cc4)cc32)C1` (stereo not shown) [II-35, pyrimidin-2-yl(3-(7-(4-(trifluoromethyl)phenyl)-2,3-dihydrobenzo[f][1,4]oxazepin-5-ylamino)pyrrolidin-1-yl)methanone], the inhibition at 1 µM was 4%.

Regarding `CN[C@H]1CCN(C2=NCCOc3ccc(-c4ccc(C(F)(F)F)cc4)cc32)C1` [II-44, (S)—N-methyl-1-(7-(4-(trifluoromethyl)phenyl)-2,3-dihydrobenzo[f][1,4]oxazepin-5-yl)pyrrolidin-3-amine], the inhibition at 1 µM is 9%.

On to `Cc1nnc2n1CCOc1ccc(-c3ccc(C(F)(F)F)cc3)cc1-2` [Compound I-4, 3-methyl-10-(4-(trifluoromethyl)phenyl)-5,6-dihydrobenzo[f][1,2,4]triazolo[4,3-d][1,4]oxazepine], for which the inhibition at 1 µM is 10%.

Turning to `FC1(F)CCN(C2=NCCOc3ccc(-c4ccc(C(F)(F)F)cc4)cc32)C1` [II-6, 5-(3,3-difluoropyrrolidin-1-yl)-7-(4-(trifluoromethyl)phenyl)-2,3-dihydrobenzo[f][1,4]oxazepine], the inhibition at 1 µM was 7%.

On to `OC(CN[C@@H]1CCN(C2=NCCOc3ccc(-c4ccc(C(F)(F)F)cc4)cc32)C1)COc1cccc2ccccc12` (stereo partly drawn) [II-61, 1-(naphthalen-1-yloxy)-3-((R)-1-(7-(4-(trifluoromethyl)phenyl)-2,3-dihydrobenzo[f][1,4]oxazepin-5-yl)pyrrolidin-3-ylamino)propan-2-ol], for which the inhibition at 1 µM came to 12%.

Turning to `CN(C(=O)OC(C)(C)C)[C@@H]1CCN(C2=NCCOc3ccc(-c4ccc(C(F)(F)F)cc4)cc32)C1` [II-38, (R)-tert-butyl methyl(1-(7-(4-(trifluoromethyl)phenyl)-2,3-dihydrobenzo[f][1,4]oxazepin-5-yl)pyrrolidin-3-yl)carbamate], the inhibition at 1 µM was 18%.

As for `Cn1c(CNC2=NCCOc3ccc(-c4ccc(C(F)(F)F)cc4)cc32)nc2ccccc21` [II-33, N-((1-methyl-1H-benzo[d]imidazol-2-yl)methyl)-7-(4-(trifluoromethyl)phenyl)-2,3-dihydrobenzo[f][1,4]oxazepin-5-amine], the inhibition at 1 µM stood at 34%.

Regarding `Cn1cncc1-c1cn2c(n1)-c1cc(-c3ccc(C(F)(F)F)cc3)ccc1OCC2` [Compound I-23, 2-(1-methyl-1H-imidazol-5-yl)-10-(4-(trifluoromethyl)phenyl)-5,6-dihydrobenzo[f]imidazo[1,2-d][1,4]oxazepine], the inhibition at 1 µM was determined as 3%.

Regarding `NC1CN(C2=NCCOc3ccc(-c4ccc(C(F)(F)F)cc4)cc32)C1` [II-18, 1-(7-(4-(trifluoromethyl)phenyl)-2,3-dihydrobenzo[f][1,4]oxazepin-5-yl)azetidin-3-amine], the inhibition at 1 µM was 9%.

Consider `CN(C(=O)OC(C)(C)C)[C@H]1CCN(C2=NCCOc3ccc(-c4ccc(C(F)(F)F)cc4)cc32)C1` [II-40, (S)-tert-butyl methyl(1-(7-(4-(trifluoromethyl)phenyl)-2,3-dihydrobenzo[f][1,4]oxazepin-5-yl)pyrrolidin-3-yl)carbamate], for which the inhibition at 1 µM was 18%.
